# Measured values as given in patent US9169241B2, “Quinolinyloxyphenylsulfonamides” (Max-Planck-Gesellschaft Zur Forderung der Wissenschaften …, priority 2009, dated 2015).
# Like-named read-outs stand apart in the source and are kept apart here.
# Assays:
# Hs578T [1] = assay: Cell vitality assay (ATP assay, CellTiter-Glo); type: cell-based; details: Homo sapiens, Hs-578T; HS578T cell line, 72 h; Table Ib; read-out: IC50 ATP-Assay HS578T after 72 h
# Protocol: (§1) The CellTiter-Glo® Luminescent Cell Viability Assay (Promega Corporation. Madison, Wis., USA) is method a determining the number of viable cells in culture based on quantification of the ATP being present which is an indicator of metabolically active cells was used according to manufacturers protocol, In detail the assay was performed in a 96 well format were 1000 cells/well were incubated with indicated compound at concentration of 12.5 μM, 6.25 μM, 3.125 μM, 1.56 μM, 0.78 μM, 0.39 μM, 0.195 μM as well as DMSO control for 72 h in 100 μl cell culture medium. IC50 values were calculated as 50% of ATP amount compared to DMSO control.
# Protocol for the CellTiter-Glo® Luminescent Cell Viability Assay • 1. Prepare opaque-walled multiwell plates with mammalian cells in culture medium, 100 μl per well for 96-well plates • 2. Prepare control wells containing medium without cells to obtain a value for background luminescence. • 3. Add the compound to be tested to experimental wells, and incubate according to culture protocol. • 4. Equilibrate the plate and its contents at room temperature for approximately 30 minutes. • 5. Add a volume of CellTiter-Glo® Reagent (Promega Corporation. Madison, Wis.) equal to the volume of cell culture medium present in each well. • 6. Mix contents for 2 minutes on an orbital shaker to induce cell lysis. • 7. Allow the plate to incubate at room temperature for 10 minutes to stabilize luminescent signal. • 8. Record luminescence on Microplate Luminometer LB96V (Berthold Tchnologies, Bad Wildbad, Germany). An integration time of 0.1 and 1 second per well
# Hs578T [2] = assay: Wound healing migration assay; type: cell-based; details: Homo sapiens, Hs-578T; HS578T cell line; Table Ib
# Protocol: This method mimics cell migration during wound healing in vivo. The basic steps involve creating a “wound” in a cell monolayer, capturing the images at the beginning and at regular intervals during cell migration to close the wound, and comparing the images to quantify the migration rate of the cells. In detail, 150000 cell/24 well have been seeded and allowed to form a monolayer overnight. Subsequently a “wound” or “scratch” has been performed with a 1000 μl pipette tip. The STDV of wound size is normally below 10% at time point t0. The assay was stopped by fixation with 0.05% Crystal violet/20% methanol when control scratches were closed. The assay was terminated between 48 h and 72 h depending on the migration potential of the indicated cell line. The “wounds” were visualized with a Zeiss Axiovert S100 microscope (Carl Zeiss UK, Welwyn Garden City, UK). The tested compounds were used at 12.5 μM, 6.25, 3.125 μM and DMSO control. IC50 values have been calculated as 50% wound size in between t0 and t48 or t72.
# Hs578T [3] = assay: Matrigel outgrowth assay/branching assay; type: cell-based; details: Homo sapiens, Hs-578T; HS578T cell line; Table Ib; read-out: Total branching inhibition in Matrigel HS578T
# Protocol: The Matrigel outgrowth assay is based on the ability of tumor cell to penetrate a solid gel of extracellular matrix proteins mimicking the metastasis formation in vivo. While cells with low invasive potential appear as roundish cell or cell cluster, cells with high invasive potential penetrate the Matrigel and form polymorphic structures. In detail 65 μl of Matrigel matrix (Matrigel™ Matrix, BD Biosciences, Bedford, Mass., USA) with a concentration of 3 mg/ml have been polymerized in 96 well plates for 1 h at 37° C. Subsequently 5000 cell/well were seeded into each well containing cell culture medium and indicated compound with concentrations of 3.125 μM, 1.56 μM and 0.78 μM as well as DMSO control. After 48 h, 72 h and 96 h images of cell were taken on an inverted microscope using a 5× objective (Zeiss Axiovert S100 microscope Carl Zeiss UK, Welwyn Garden City, UK). Only compound concentrations were total branching inhibition was evident were accounted as positive. Method was used as previously described, with some modifications (Thompson E W, et al. Association of increased basement membrane invasiveness with absence of estrogen receptor and expression of vimentin in human breast cancer cell lines. J Cell Physiol 1992; 150:534-44).
# viable cells in culture = assay: Cell viability assay at 10 μM (CellTiter-Glo, Table VII); type: cell-based; details: compound 10 μM, 72 h;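 also: graded A 0-20%; B 21-40%; C 41-60%; D over 60% viable cells relative to DMSO control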
# Protocol: as §1, with “protocol.” for “protocol,”, “with” for “with indicated”, “10” for “of 12.5 μM, 6.25 μM, 3.125 μM, 1.56 μM, 0.78 μM, 0.39 μM, 0.195”, “Percentage of inhibition was” for “IC50 values were”, “compared to” for “as 50% of”, “of” for “compared to”
# [4] = Homo sapiens, HCT-116, HCT116 def, read-out: percentage (%) of viable cells HCT 116def
# [5] = Homo sapiens, HCT-116, HCT116 wt, read-out: percentage (%) of viable cells HCT 116wt
# [6] = Homo sapiens, HT-29, HT29, read-out: percentage (%) of viable cells HT29
# [7] = Homo sapiens, NCI-H358, H358, read-out: percentage (%) of viable cells H358
# [8] = Homo sapiens, NCI-H1650, H1650, read-out: percentage (%) of viable cells H1650
# [9] = Homo sapiens, NCI-H1666, H1666, read-out: percentage (%) of viable cells H1666
# [10] = Homo sapiens, NCI-H1975, H1975, read-out: percentage (%) of viable cells H1975
# [11] = Homo sapiens, NCI-H1993, H1993, read-out: percentage (%) of viable cells H1993
# [12] = Homo sapiens, A549, read-out: percentage (%) of viable cells A549
# [13] = Homo sapiens, HCC827, read-out: percentage (%) of viable cells HCC827
# [14] = Homo sapiens, SW480, read-out: percentage (%) of viable cells SW480
# [15] = RKO, read-out: percentage (%) of viable cells RKO
SMILES,IC50 (Hs578T [2]) [µM],melting point [°C],IC50 (Hs578T [1]) [µM],IC50 (Hs578T [3]) [µM],viability at 10 µM (viable cells in culture; [4]) [%],viability at 10 µM (viable cells in culture; [5]) [%],viability at 10 µM (viable cells in culture; [6]) [%],viability at 10 µM (viable cells in culture; [7]) [%],viability at 10 µM (viable cells in culture; [8]) [%],viability at 10 µM (viable cells in culture; [9]) [%],viability at 10 µM (viable cells in culture; [10]) [%],viability at 10 µM (viable cells in culture; [11]) [%],viability at 10 µM (viable cells in culture; [12]) [%],viability at 10 µM (viable cells in culture; [13]) [%],viability at 10 µM (viable cells in culture; [14]) [%],viability at 10 µM (viable cells in culture; [15]) [%]
"COc1cc2c(Oc3cccc(NS(=O)(=O)c4ccc(Cl)s4)c3)ccnc2cc1OCCCN1CCN(C)CC1 [Example 130, 5-Chloro-thiophene-2-sulfonic acid (3-{6-methoxy-7-[3-(4-methyl-piperazin-1-yl)-propoxy]-quinolin-4-yloxy}-phenyl)-amide]",12.5 to 50,162 to 163,≤ 12.5,≤ 10,–,–,–,–,–,–,–,–,–,–,–,–
"COc1cc2c(Oc3cccc(NS(=O)(=O)c4c(F)cccc4F)c3)ccnc2cc1OCCCN1CCN(C)CC1 [Example 125, 2,6-Difluoro-N-(3-{6-methoxy-7-[3-(4-methyl-piperazin-1-yl)-propoxy]-quinolin-4-yloxy}-phenyl)-benzenesulfonamide]",≤ 12.5,171 to 172,≤ 12.5,10 to 25,–,–,–,–,–,–,–,–,–,–,–,–
"COc1cc2c(Oc3cccc(NS(=O)(=O)C4CC4)c3)ccnc2cc1OCCCN1CCN(C)CC1 [Example 142, Cyclopropanesulfonic acid (3-{6-methoxy-7-[3-(4-methyl-piperazin-1-yl)-propoxy]-quinolin-4-yloxy}-phenyl)-amide]",12.5 to 50,150 to 152,12.5 to 50,10 to 25,–,–,–,–,–,–,–,–,–,–,–,–
"COc1cc2c(Oc3cccc(NS(=O)(=O)c4cccs4)c3)ccnc2cc1OCCCN1CCN(C)CC1 [Example 129, Thiophene-2-sulfonic acid (3-{6-methoxy-7-[3-(4-methyl-piperazin-1-yl)-propoxy]-quinolin-4-yloxy}-phenyl)-amide]",≤ 12.5,188 to 189,≤ 12.5,≤ 10,–,–,–,–,–,–,–,–,–,–,–,–
"COc1cc2c(Oc3ccc(NS(=O)(=O)c4ccccc4Br)cc3F)ccnc2cc1OCCCN1CCN(C)CC1 [Example 19, 2-Bromo-N-(3-fluoro-4-{6-methoxy-7-[3-(4-methyl-piperazin-1-yl)-propoxy]-quinolin-4-yloxy}-phenyl)-benzenesulfonamide]",–,98 to 101,–,–,21 to 40,0 to 20,0 to 20,0 to 20,21 to 40,21 to 40,21 to 40,0 to 20,21 to 40,21 to 40,0 to 20,0 to 20
"COc1cc2c(Oc3ccc(NS(=O)(=O)c4ccc(Cl)cc4F)cc3F)ccnc2cc1OCCCN1CCCCC1 [Example 3, 4-Chloro-2-fluoro-N-{3-fluoro-4-[6-methoxy-7-(3-piperidin-1-yl-propoxy)-quinolin-4-yloxy]-phenyl}-benzenesulfonamide]",–,122 to 124,–,–,0 to 20,0 to 20,0 to 20,0 to 20,41 to 60,41 to 60,21 to 40,21 to 40,21 to 40,> 60,0 to 20,0 to 20
"COc1cc2c(Oc3ccc(NS(=O)(=O)c4cccc(-c5ccccc5)c4)cc3F)ccnc2cc1OCCCN1CCN(C)CC1 [Example 13, Biphenyl-3-sulfonic acid (3-fluoro-4-{6-methoxy-7-[3-(4-methyl-piperazin-1-yl)-propoxy]-quinolin-4-yloxy}-phenyl)-amide]",–,190 to 191,–,–,0 to 20,0 to 20,0 to 20,0 to 20,21 to 40,0 to 20,0 to 20,0 to 20,21 to 40,0 to 20,0 to 20,0 to 20
"COc1cc2c(Oc3ccc(NS(=O)(=O)c4cc(Cl)ccc4Cl)cc3F)ccnc2cc1OCCCN1CCN(C)CC1 [Example 20, 2,5-Dichloro-N-(3-fluoro-4-{6-methoxy-7-[3-(4-methyl-piperazin-1-yl)-propoxy]-quinolin-4-yloxy}-phenyl)-benzenesulfonamide]",–,134 to 136,–,–,21 to 40,0 to 20,0 to 20,0 to 20,21 to 40,21 to 40,21 to 40,21 to 40,> 60,41 to 60,0 to 20,0 to 20

# Further lines, with some results ahead:
IC50 (Hs578T [2]) [µM],melting point [°C],SMILES,IC50 (Hs578T [1]) [µM],IC50 (Hs578T [3]) [µM],viability at 10 µM (viable cells in culture; [4]) [%],viability at 10 µM (viable cells in culture; [5]) [%],viability at 10 µM (viable cells in culture; [6]) [%],viability at 10 µM (viable cells in culture; [7]) [%],viability at 10 µM (viable cells in culture; [8]) [%],viability at 10 µM (viable cells in culture; [9]) [%],viability at 10 µM (viable cells in culture; [10]) [%],viability at 10 µM (viable cells in culture; [11]) [%],viability at 10 µM (viable cells in culture; [12]) [%],viability at 10 µM (viable cells in culture; [13]) [%],viability at 10 µM (viable cells in culture; [14]) [%],viability at 10 µM (viable cells in culture; [15]) [%]
12.5 to 50,163 to 164,"COc1cc2c(Oc3ccc(NS(=O)(=O)c4c(C)nn(C)c4C)cc3F)ccnc2cc1OCCCN1CCOCC1 [Example 161, 1,3,5-Trimethyl-1H-pyrazole-4-sulfonic acid {3-fluoro-4-[6-methoxy-7-(3-morpholin-4-yl-propoxy)-quinolin-4-yloxy]-phenyl}-amide]",≤ 12.5,10 to 25,–,–,–,–,–,–,–,–,–,–,–,–
≤ 12.5,253 to 255,"COc1ccc2nccc(Oc3ccc(NS(=O)(=O)c4cc(Cl)ccc4Cl)cc3F)c2c1 [Example 203, 2,5-Dichloro-N-[3-fluoro-4-(6-methoxy-quinolin-4-yloxy)-phenyl]-benzenesulfonamide]",≤ 12.5,10 to 25,–,–,–,–,–,–,–,–,–,–,–,–
≤ 12.5,–,"COc1cc2c(Oc3cc(NS(=O)(=O)c4cc(F)ccc4F)ccc3F)ccnc2cc1OCCCN1CCC(C)CC1 [Example 187, 2,5-Difluoro-N-(4-fluoro-3-{6-methoxy-7-[3-(4-methyl-piperidin-1-yl)-propoxy]-quinolin-4-yloxy}-phenyl)-benzenesulfonamide]",≤ 12.5,≤ 10,–,–,–,–,–,–,–,–,–,–,–,–
12.5 to 50,–,"COc1cc2c(Oc3ccc(NS(=O)(=O)c4cnc(C)[nH]4)cc3F)ccnc2cc1OCCCN1CCOCC1 [Example 169, 2-Methyl-3H-imidazole-4-sulfonic acid {3-fluoro-4-[6-methoxy-7-(3-morpholin-4-yl-propoxy)-quinolin-4-yloxy]-phenyl}-amide]",12.5 to 50,10 to 25,–,–,–,–,–,–,–,–,–,–,–,–
